The record followed here is patent publication US7049332B2, “HIV inhibiting N-aminoimidazole derivatives” (K. U. Leuven Research & Development, priority 2001, dated 2006).

The subject of series [1] is HIV-1 (NL4.3 WT). Kind of series: Inhibition of HIV-induced cytopathogenic effect in MT-4 cells (MTT), HIV-1. The class given is cell-based. To be noted: for IC50: Human immunodeficiency virus 1, MT4, 50% protection against HIV-induced cytopathogenic effect, MT-4 cells, MTT; for HIV-1 (NL4.3 WT) SI: selectivity index = ratio of CC50 to IC50, HIV-1. As to the method: (§1) A rapid and automated assay procedure was used for the in vitro evaluation of anti-HIV agents. An HTLV-1 transformed T4-cell line MT-4, which was previously shown to be highly susceptible to and permissive for HIV infection, served as the target cell line. Inhibition of the HIV-induced cytopathogenic effect was used as the end point. The viabitlity of both HIV-and mock-infected cells was assessed spectrophotometrically via in situ reduction of 3-(4,5-dimethylthiazol-2-yl)-2,5-diphenyltetrazolium bromide (MTT). The 50% cytotoxic concentration (CC50 in μg/ml) was defined as the concentration of compound that reduced the absorbance of the mock-infected control sample by 50%. The percent protection achieved by the compound in HIV-infected cells was calculated by the following formula:
(§2) [formula] whereby (ODT)HIV is the optical density measured with a given concentration of the test compound in HIV-infected cells; (ODC)HIV is the optical density measured for the control untreated HIV-infected cells; (ODC)MOCK is the optical density measured for the control untreated mock-infected cells; all optical density values were determined at 540 nm. The dose achieving 50% protection according to the above formula was defmed as the 50% inhibitory concentration (IC50 in μg/ml). The ratio of CC50 to IC50 was defined as the selectivity index (SI).
(§3) Cells: MT-4 cells (Miyoshi et al., 1982) were grown and maintained in RPMI 1640 medium supplemented with 10% heat-inactivated fetal calf serum, 2 mM 1-glutamine, 0.1% sodium bicarbonate, and 20 œg of gentamicin per ml.
(§4) Viruses: The HIV-1(NL4.3) strain (Adachi et al., 1986) is a molecular clone obtained from the National Institutes of Health (Bethesda, Md.). The HIV-2(ROD) (Barr,-Sinoussi et al., 1983) stock was obtained from culture supernatant of HIV-2 infected cell lines.
On the technique in general: Damage to the host cells serves as the signal in cytopathic effect assays.

Series [2] deals with HIV-2 (ROD). Nature of the series: Inhibition of HIV-induced cytopathogenic effect in MT-4 cells (MTT), HIV-2. To be noted: for IC50: Human immunodeficiency virus 2, MT4, 50% protection against HIV-induced cytopathogenic effect, MT-4 cells, MTT; for HIV-2 (ROD) SI: selectivity index = ratio of CC50 to IC50, HIV-2. Format: cell-based. As to the method: as §1, §2, §3, §4
A short description of series [3]: Cytotoxicity in mock-infected MT-4 cells (MTT). The class given is cell-based. The note with it: human; mock-infected MT-4 cells, absorbance reduced by 50%, MTT. As to the method: as §1, with “formula: Examples of inhibition of cell proliferation by particular compounds of formula (I) can be found by looking at the respective CC50 values in the MT-4 cell line. Cells: MT-4 cells (Miyoshi et al., 1982) were grown and maintained in RPMI 1640 medium supplemented with 10% heat-inactivated fetal calf serum, 2 mM […], 0.1% sodium bicarbonate, and 20 œg of gentamicin per ml.” for “formula:”

In brackets after ≈: the same amount, converted by molar mass.

By IC50 is commonly meant the midpoint of a concentration-inhibition curve. Low readings indicate higher potency, high ones lower potency. One may read the CC50 as the concentration giving 50% cytotoxicity. Low readings indicate greater toxicity to the cells, high ones lower toxicity to the cells. The melting point is the temperature of the solid-liquid transition.

Regarding `Cc1ccc(Nn2c(-c3ccccc3)c(C)[nH]c2=S)cc1Cl` [Compound 9.15, 1-(3-Chloro-4-methylphenylamino)-2,3-dihydro-4-methyl-5-phenyl-1H-imidazole-2-thione], the melting point is 190 °C. For the same compound, in series [1], 3.6 µg/mL (≈ 10.9 µM) corresponded to half-maximal inhibition (IC50) and the “HIV-1 (NL4.3 WT) SI” value turned out to be 4.7. Besides, in series [2], the IC50 is above 16.9 µg/mL and the “HIV-2 (ROD) SI” value is below 1. This compound also gave a CC50 in series [3] of 16.9 µg/mL (≈ 51.2 µM).
Take `Cc1[nH]c(=S)n(Nc2cccc(Cl)c2)c1-c1ccccc1` [Compound 9.01, 1-(3-Chlorophenylamino)-2,3-dihydro-4-methyl-5-phenyl-1H-imidazole-2-thione]: the melting point is 215 to 217 °C. Besides, in series [1], the IC50 was 2.8 µg/mL (≈ 8.87 µM) and the “HIV-1 (NL4.3 WT) SI” value was found to be 7.6. In addition, in series [2], the midpoint of inhibition, the IC50, lay at 2.6 µg/mL (≈ 8.23 µM) and the “HIV-2 (ROD) SI” value is recorded as 8.4. In series [3], this compound came in with a cytotoxic concentration (CC50) of 21.5 µg/mL (≈ 68.1 µM).
`Cc1[nH]c(=S)n(Nc2cccc(F)c2)c1-c1ccccc1` [Compound 9.18, 2,3-Dihydro-1-(3-fluorophenylamino)-4-methyl-5-phenyl-1H-imidazole-2-thione] showed a melting point of 226 °C. In addition, in series [1], the IC50 was determined as 5.5 µg/mL (≈ 18.4 µM) and the “HIV-1 (NL4.3 WT) SI” value was 8.6. Further, in series [2], the IC50 was above 47.3 µg/mL and the “HIV-2 (ROD) SI” value is below 1. Also, in series [3], the CC50 was determined as 47.3 µg/mL (≈ 158 µM).
In turn, `Cc1cccc(Nn2c(-c3ccccc3)c(C)[nH]c2=S)c1` [Compound 9.19, 2,3-Dihydro-4-methyl-1-(3-methylphenylamino)-5-phenyl-1H-imidazole-2-thione] returned a melting point of 206 °C. Further, in series [1], the IC50 turned out to be 0.6 µg/mL (≈ 2.03 µM) and the “HIV-1 (NL4.3 WT) SI” value was 32.3. In addition, in series [2], the half-inhibitory concentration (IC50) is above 20.7 µg/mL and the “HIV-2 (ROD) SI” value is listed as below 1. This compound also yielded a cytotoxic concentration (CC50) in series [3] of 20.7 µg/mL (≈ 70.1 µM).
With `Cc1cccc(Nn2cnc(C)c2-c2ccccc2)c1` [Compound 13.09, 4-Methyl-1-(3-methylphenylamino)-5-phenyl-1H-imidazole], the melting point worked out at 159 °C. Further, in series [1], the midpoint of inhibition, the IC50, lay at 1.4 µg/mL (≈ 5.32 µM) and the “HIV-1 (NL4.3 WT) SI” value was found to be 5.6. For the same compound, in series [2], the half-maximal inhibitory concentration (IC50) was above 7.6 µg/mL and the “HIV-2 (ROD) SI” value is below 1. In addition, it took 7.6 µg/mL (≈ 28.9 µM) to reach half-maximal cytotoxicity in series [3] (CC50).
The compound `Cc1cc(C)cc(Nn2c(-c3ccccc3)c(C)[nH]c2=S)c1` [Compound 9.30, 2,3-Dihydro-1-(3,5-dimethylphenylamino)-4-methyl-5-phenyl-1H-imidazole-2-thione] had a melting point of 240 to 242 °C. Further, in series [1], the IC50 stood at 0.3 µg/mL (≈ 0.969 µM) and the “HIV-1 (NL4.3 WT) SI” value was 241.9. Besides, in series [2], the concentration for half-maximal inhibition (IC50) is above 65.3 µg/mL and the “HIV-2 (ROD) SI” value was below 1. In series [3], this compound showed a CC50 of 65.3 µg/mL (≈ 211 µM).
Regarding `CCc1[nH]c(=S)n(Nc2cccc(C)c2)c1-c1ccccc1` [Compound 9.25, 2,3-Dihydro-4-ethyl-1-(3-methylphenylamino)-5-phenyl-1H-imidazole-2-thione], the melting point is 202 to 204 °C. In addition, in series [1], half-maximal inhibition (IC50) required 3.9 µg/mL (≈ 12.6 µM) and the “HIV-1 (NL4.3 WT) SI” value was 5.0. For the same compound, in series [2], the half-inhibitory concentration (IC50) was above 19.8 µg/mL and the “HIV-2 (ROD) SI” value is reported as below 1. In series [3], half-maximal cytotoxicity (CC50) was put at 19.8 µg/mL (≈ 64 µM).
As for `Cc1ncn(Nc2cccc(Cl)c2)c1-c1cccc(Br)c1` [Compound 13.02, 5-(3-Bromophenyl)-1-(3-chlorophenylamino)-4-methyl-1H-imidazole], the melting point came to 164 °C. In series [1], the concentration for half-maximal inhibition (IC50) was determined as 0.5 µg/mL (≈ 1.38 µM) and the “HIV-1 (NL4.3 WT) SI” value worked out at 6.7. In series [2], the IC50 worked out at 0.3 µg/mL (≈ 0.827 µM) and the “HIV-2 (ROD) SI” value came to 9.5. Moreover, half-maximal cytotoxicity in series [3] (CC50) was put at 3.13 µg/mL (≈ 8.63 µM).
The compound `Cc1ncn(Nc2cccc(Cl)c2)c1-c1ccccc1` [Compound 13.01, 1-(3-Chlorophenylamino)-4-methyl-5-phenyl-1H-imidazole] registered a melting point of 218 °C. In series [1], the IC50 is 0.5 µg/mL (≈ 1.76 µM) and the “HIV-1 (NL4.3 WT) SI” value is recorded as 6.0. In addition, in series [2], the IC50 came out at 0.5 µg/mL (≈ 1.76 µM) and the “HIV-2 (ROD) SI” value came out at 6.9. For the same compound, the CC50 in series [3] was determined as 3.25 µg/mL (≈ 11.5 µM).
The compound `S=c1[nH]c2c(n1Nc1cccc(Cl)c1)CCCC2` [Compound 9.11, 1-(3-Chlorophenylamino)-2,3,4,5,6,7-hexahydro-1H-benzimidazole-2-thione] registered a melting point of 148 °C. In addition, in series [1], half-maximal inhibition (IC50) was put at 13.1 µg/mL (≈ 46.8 µM) and the “HIV-1 (NL4.3 WT) SI” value was found to be 2.6. In series [2], the 50% inhibitory concentration (IC50) is above 34 µg/mL and the “HIV-2 (ROD) SI” value is below 1. Further, in series [3], the CC50 is 34 µg/mL (≈ 122 µM).
For the compound `Cc1[nH]c(=S)n(Nc2cccc([N+](=O)[O-])c2)c1-c1ccccc1` [Compound 9.17, 2,3-Dihydro-4-methyl-1-(3-nitrophenylamino)-5-phenyl-1H-imidazole-2-thione], the melting point amounted to 214 °C. In series [1], half-maximal inhibition (IC50) required 3.7 µg/mL (≈ 11.3 µM) and the “HIV-1 (NL4.3 WT) SI” value amounted to 4.2. In addition, in series [2], the IC50 was above 15.4 µg/mL and the “HIV-2 (ROD) SI” value is listed as below 1. For the same compound, the CC50 in series [3] was found to be 15.4 µg/mL (≈ 47.2 µM).
In turn, `Cc1[nH]c(=S)n(Nc2cccc(Cl)c2)c1-c1cccc(Br)c1` [Compound 9.05, 5-(3-Bromophenyl)-1-(3-chlorophenylamino)-2,3-dihydro-4-methyl-1H-imidazole-2-thione] displayed a melting point of 196 °C. Moreover, in series [1], the IC50 was 2.2 µg/mL (≈ 5.57 µM) and the “HIV-1 (NL4.3 WT) SI” value came to 10.4. In series [2], it took 4.1 µg/mL (≈ 10.4 µM) to reach half-maximal inhibition (IC50) and the “HIV-2 (ROD) SI” value stood at 5.5. This compound also yielded a CC50 in series [3] of 22.9 µg/mL (≈ 58 µM).
In turn, `Cc1ccc(Nn2c(-c3ccccc3)c(C)[nH]c2=S)cc1C` [Compound 9.13, 2,3-Dihydro-1-(3,4-dimethylphenylamino)-4-methyl-5-phenyl-1H-imidazole-2-thione] had a melting point of 228 °C. For the same compound, in series [1], the IC50 was 1.1 µg/mL (≈ 3.55 µM) and the “HIV-1 (NL4.3 WT) SI” value is reported as 16.3. Besides, in series [2], the IC50 is above 17.9 µg/mL and the “HIV-2 (ROD) SI” value was below 1. The same compound registered a CC50 in series [3] of 17.9 µg/mL (≈ 57.8 µM).
`Cc1ncn(Nc2cccc(Cl)c2)c1-c1cccc(Cl)c1` [Compound 13.03, 5-(3-Chlorophenyl)-1-(3-chlorophenylamino)-4-methyl-1H-imidazole] showed a melting point of 168 °C. Also, in series [1], the concentration for half-maximal inhibition (IC50) is 0.2 µg/mL (≈ 0.629 µM) and the “HIV-1 (NL4.3 WT) SI” value is listed as 73.5. For the same compound, in series [2], half-maximal inhibition (IC50) required 0.23 µg/mL (≈ 0.723 µM) and the “HIV-2 (ROD) SI” value came to 63.8. In series [3], this compound showed a CC50 of 14.7 µg/mL (≈ 46.2 µM).
`Cc1[nH]c(=S)n(Nc2cccc(Cl)c2)c1-c1cccc(Cl)c1` [Compound 9.07, 5-(3-Chlorophenyl)-1-(3-chlorophenylamino)-2,3-dihydro-4-methyl-1H-imidazole-2-thione] registered a melting point of 204 °C. In addition, in series [1], 0.9 µg/mL (≈ 2.57 µM) corresponded to half-maximal inhibition (IC50) and the “HIV-1 (NL4.3 WT) SI” value was 18.3. Further, in series [2], the IC50 stood at 1.4 µg/mL (≈ 4 µM) and the “HIV-2 (ROD) SI” value is recorded as 11.6. In addition, the CC50 in series [3] stood at 15.9 µg/mL (≈ 45.4 µM).
For `Cc1[nH]c(=S)n(Nc2ccccc2Cl)c1-c1ccccc1` [Compound 9.02, 1-(2-Chlorophenylamino)-2,3-dihydro-4-methyl-5-phenyl-1H-imidazole-2-thione], the melting point fell in the range of 220 to 221 °C. For the same compound, in series [1], half-maximal inhibition (IC50) was put at 7.4 µg/mL (≈ 23.4 µM) and the “HIV-1 (NL4.3 WT) SI” value is listed as 9.0. For the same compound, in series [2], the IC50 was above 65 µg/mL and the “HIV-2 (ROD) SI” value is below 1. The same compound had a CC50 in series [3] of 65 µg/mL (≈ 206 µM).
